Data set [1] in a line: Cytotoxicity of compound was tested as concentration required for 50% reduction in cellular viability in MT-4 cells. The class given is cell-based, MT4. The conditions noted are these: human.
For data set [2], the system named is MT4. In words: Tested for inhibition of cytopathic effect of HIV-2ROD in MT-4 cells. As to conditions: Homo sapiens. The data set is classed as functional, cell-based. A general note: Cytopathic effects are the visible damage that an infection or toxin causes in cultured cells.
The test system of data set [3] is MT4. In words: Tested for inhibition of cytopathic effect of HIV-1 IIIB in MT-4 cells. The class given is functional, cell-based. The conditions noted are these: Homo sapiens.
The nature of data set [4]: Cytotoxicity of compound was tested as concentration required for 50% reduction in cellular viability in CEM-SS cells. The data set is classed as cell-based. The conditions noted are these: human.
In data set [5] the test system is CEM-SS. In words: Tested for inhibition of cytopathic effect of HIV-1RF in CEM-SS cells. The data set is classed as functional, cell-based. The conditions noted are these: Homo sapiens.

The source of these data is ChEMBL document CHEMBL1132806, “Anti-HIV activity of a series of cosalane amino acid conjugates” (Bioorg Med Chem Lett, 2000).

pEC50: −log10 of the molar value.

By CC50 is commonly meant the concentration giving 50% cytotoxicity. A word on the pEC50: it is −log10 of the EC50, conventionally taken in molar units. A low value points to a large EC50. `CC(C)CCCC(C)[C@H]1CC[C@H]2[C@@H]3CCC4C[C@@H](CCC=C(c5cc(Cl)c(O)c(C(=O)NCC(=O)O)c5)c5cc(Cl)c(O)c(C(=O)NCC(=O)O)c5)CC[C@]4(C)[C@H]3CC[C@]12C` (stereo partly specified): the CC50 in data set [1] is more than 125 µM; in data set [4], more than 200 µM. The pEC50 was less than 3.90 in data set [2], 4.29 in data set [3] and 5.46 in data set [5].
Consider `CC(C)CCCC(C)[C@H]1CC[C@H]2[C@@H]3CCC4C[C@@H](CCC=C(c5cc(Cl)c(O)c(C(=O)NCC(=O)OC(C)(C)C)c5)c5cc(Cl)c(O)c(C(=O)NCC(=O)OC(C)(C)C)c5)CC[C@]4(C)[C@H]3CC[C@]12C` (stereo partly specified), for which the CC50 in data set [1] and in data set [4] was more than 125 µM in each case. The pEC50 in data set [2] and in data set [3] was less than 3.90 throughout.
`CC(C)CCCC(C)[C@H]1CC[C@H]2[C@@H]3CCC4C[C@@H](CCC=C(c5cc(Cl)c(O)c(C(=O)NCCC(=O)O)c5)c5cc(Cl)c(O)c(C(=O)NCCC(=O)O)c5)CC[C@]4(C)[C@H]3CC[C@]12C` (stereo partly specified): the CC50 is more than 125 µM in data set [1] and more than 200 µM in data set [4]. Besides, the pEC50 was 3.92 in data set [2], 4.12 in data set [3] and 4.46 in data set [5].
Consider `CC(C)CCCC(C)[C@H]1CC[C@H]2[C@@H]3CCC4C[C@@H](CCCC(c5cc(Cl)c(O)c(C(=O)NCC(=O)O)c5)c5cc(Cl)c(O)c(C(=O)NCC(=O)O)c5)CC[C@]4(C)[C@H]3CC[C@]12C` (stereo partly specified), for which the cytotoxic concentration (CC50) in data set [1] is more than 125 µM; in data set [4], more than 200 µM. Further, the pEC50 was less than 3.90 in data set [2], 4.46 in data set [3] and 5.35 in data set [5].
As for `CC(C)CCCC(C)[C@H]1CC[C@H]2[C@@H]3CCC4C[C@@H](CCC=C(c5cc(Cl)c(O)c(C(=O)N[C@@H](CC(C)C)C(=O)O)c5)c5cc(Cl)c(O)c(C(=O)N[C@@H](CC(C)C)C(=O)O)c5)CC[C@]4(C)[C@H]3CC[C@]12C` (stereo partly specified), the CC50 is more than 125 µM in data set [1] and more than 200 µM in data set [4]. Moreover, the pEC50 is less than 3.90 in data set [2], 4.20 in data set [3] and 4.40 in data set [5].
For `CC(C)CCCC(C)[C@H]1CC[C@H]2[C@@H]3CCC4C[C@@H](CCC=C(c5cc(Cl)c(O)c(C(=O)N[C@@H](CC(=O)O)C(=O)O)c5)c5cc(Cl)c(O)c(C(=O)N[C@@H](CC(=O)O)C(=O)O)c5)CC[C@]4(C)[C@H]3CC[C@]12C` (stereo partly specified), in that order: more than 125 µM, 90 µM, 3.91, 4.78 and 4.97.
For the molecule `CC(C)CCCC(C)[C@H]1CC[C@H]2[C@@H]3CCC4C[C@@H](CCC=C(c5cc(Cl)c(O)c(C(=O)N[C@@H](Cc6ccccc6)C(=O)O)c5)c5cc(Cl)c(O)c(C(=O)N[C@@H](Cc6ccccc6)C(=O)O)c5)CC[C@]4(C)[C@H]3CC[C@]12C` (stereo partly specified), the CC50 is 62 µM in data set [1] and more than 200 µM in data set [4]. Further, the pEC50 in data set [2] was less than 4.21; in data set [3], less than 4.21; in data set [5], less than 3.70.
With `CC(C)CCCC(C)[C@H]1CC[C@H]2[C@@H]3CCC4C[C@@H](CCC=C(c5cc(Cl)c(O)c(C(=O)O)c5)c5cc(Cl)c(O)c(C(=O)O)c5)CC[C@]4(C)[C@H]3CC[C@]12C` (stereo partly specified), the CC50 in data set [1] and in data set [4] was more than 200 µM each time.
For `CC(C)CCCC(C)[C@H]1CC[C@H]2[C@@H]3CCC4C[C@@H](CCCC(c5cc(Cl)c(O)c(C(=O)N[C@@H](CCC(=O)O)C(=O)O)c5)c5cc(Cl)c(O)c(C(=O)N[C@@H](CCC(=O)O)C(=O)O)c5)CC[C@]4(C)[C@H]3CC[C@]12C` (stereo partly specified), the CC50 in data set [1] was more than 125 µM; in data set [4] it was 34 µM. Further, the pEC50 in data set [2] was 4.12; in data set [3], 4.97; in data set [5], 4.94.
The like results for `CC(C)CCCC(C)[C@H]1CC[C@H]2[C@@H]3CCC4C[C@@H](CCC=C(c5cc(Cl)c(O)c(C(=O)N[C@@H](CCC(=O)O)C(=O)O)c5)c5cc(Cl)c(O)c(C(=O)N[C@@H](CCC(=O)O)C(=O)O)c5)CC[C@]4(C)[C@H]3CC[C@]12C` (stereo partly specified) were, in that order, more than 125 µM, 82 µM, 4.15, 5.04 and 5.96.
